Assay results published in PubChem BioAssay (NCI).
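96-well plates; 48 h exposure; 5 concentrations. Endpoints by linear interpolation between flanking doses. Not reached: highest tested concentration assigned. At the GI50, growth is halved. TGI: concentration producing complete growth inhibition.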

How the values were obtained:
Assay in all cases: NCI anticancer screen, dose series, 48 h
[1] = tested on: IGROV1 ovarian
[2] = tested on: U251 CNS
[3] = tested on: OVCAR-3 ovarian
[4] = tested on: HCT-15 colon
[5] = tested on: RPMI-8226 leukemia
[6] = tested on: UACC-62 melanoma
[7] = tested on: SNB-19 CNS
[8] = tested on: M14 melanoma
[9] = tested on: A549 NSCLC
[10] = tested on: UO-31 renal
[11] = tested on: ACHN renal
[12] = tested on: OVCAR-8 ovarian
[13] = tested on: A498 renal
[14] = tested on: NCI-H522 lung
[15] = tested on: KM12 colon
[16] = tested on: HCT-116 colon
[17] = tested on: DU-145 prostate
[18] = tested on: HOP-92 NSCLC
[19] = tested on: SR leukemia
[20] = tested on: SW-620 colon
[21] = tested on: MOLT-4 leukemia
[22] = tested on: MDA-MB-435
[23] = tested on: BT-549 breast
[24] = tested on: MDA-MB-231 breast
[25] = tested on: SF-539 CNS
[26] = tested on: HL-60(TB) leukemia
[27] = tested on: HOP-62 NSCLC
[28] = tested on: CAKI-1 renal
[29] = tested on: SNB-75 CNS

Cc1ccc2nc3ccccc3c(NCc3ccccc3)c2c1
GI50 [1]: 2.01 µM
TGI [1]: 9.2 µM
GI50 [2]: 2.49 µM
TGI [2]: 10.2 µM
GI50 [3]: 3.09 µM
TGI [3]: 9.97 µM
GI50 [4]: 2.01 µM
TGI [4]: 7.64 µM
GI50 [5]: 1.56 µM
TGI [5]: 6.45 µM
GI50 [6]: 5.9 µM
TGI [6]: 12.8 µM
GI50 [7]: 4.01 µM
TGI [7]: 11 µM
GI50 [8]: 5.83 µM
TGI [8]: 13 µM
GI50 [9]: 2.63 µM
TGI [9]: 10.9 µM
GI50 [10]: 1.44 µM
TGI [10]: 7.5 µM
GI50 [11]: 2.39 µM
TGI [11]: 8.88 µM
GI50 [12]: 2.32 µM
TGI [12]: 11.1 µM
GI50 [13]: 1.24 µM
TGI [13]: 6.9 µM
GI50 [14]: 2.72 µM
TGI [14]: 12.6 µM
GI50 [15]: 5.13 µM
TGI [15]: 12.6 µM
GI50 [16]: 1.44 µM
TGI [16]: 6.62 µM
GI50 [17]: 2.56 µM
TGI [17]: 8.83 µM
GI50 [18]: 1.34 µM
TGI [18]: 7.56 µM
GI50 [19]: 1.31 µM
TGI [19]: 3.62 µM
GI50 [20]: 1.76 µM
TGI [20]: 7.85 µM
GI50 [21]: 1.5 µM
TGI [21]: 8.73 µM
GI50 [22]: 4.72 µM
TGI [22]: 10.8 µM
GI50 [23]: 5.13 µM
TGI [23]: 11.7 µM
GI50 [24]: 3.33 µM
TGI [24]: 10.5 µM
GI50 [25]: 2.43 µM
TGI [25]: 9.07 µM
GI50 [26]: 3.49 µM
TGI [26]: 12.7 µM
GI50 [27]: 3.77 µM
TGI [27]: 12.5 µM
GI50 [28]: 2.39 µM
TGI [28]: 9.26 µM
GI50 [29]: 5.68 µM
TGI [29]: 11.9 µM
